What was measured:
γ-secretase = system: γ-secretase; parameters: method as in PMID 24352661, PMID 23791707; conditions: cited from earlier work
SPPL2a = target: T1, SPPL2a (Homo sapiens, UniProt Q8TCT8); assay: FBA/SPPL2a co-transfected HEK 293T cell cleavage assay (Aβ ELISA, Western blot); type: cell-based; conditions: overnight
T1 construct: expressed in transfected cells; host or cells: HEK 293T
T1 sequence (Q8TCT8 26-520): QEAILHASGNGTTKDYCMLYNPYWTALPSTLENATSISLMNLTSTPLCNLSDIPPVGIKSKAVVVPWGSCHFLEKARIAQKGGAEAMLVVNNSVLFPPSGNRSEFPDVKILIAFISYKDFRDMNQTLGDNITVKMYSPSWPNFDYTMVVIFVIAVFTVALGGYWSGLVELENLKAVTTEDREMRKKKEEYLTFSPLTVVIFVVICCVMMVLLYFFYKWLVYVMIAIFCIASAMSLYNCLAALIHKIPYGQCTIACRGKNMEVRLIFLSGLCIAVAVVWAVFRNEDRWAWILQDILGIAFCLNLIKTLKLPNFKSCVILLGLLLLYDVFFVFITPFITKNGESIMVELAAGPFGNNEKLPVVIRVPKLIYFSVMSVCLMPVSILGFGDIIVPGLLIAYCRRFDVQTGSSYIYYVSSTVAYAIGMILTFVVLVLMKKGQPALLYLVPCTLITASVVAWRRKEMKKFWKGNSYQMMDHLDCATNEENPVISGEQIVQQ

SPP = system: SPP; parameters: method as in PMID 15252014, PMID 19337374, PMID 12621027; conditions: cited from earlier work

Row | Compound | inhibition of γ-secretase cleavage of APP (γ-secretase) | inhibition at 10 µM (SPPL2a) [%] | inhibition of SPP activity (SPP)
1 | CC(C)C[C@H](NC(=O)OCc1ccccc1)C(=O)N[C@@H](CC(C)C)C(=O)NCC(=O)CNC(=O)[C@H](CC(C)C)NC(=O)[C@H](CC(C)C)NC(=O)OCc1ccccc1 [(Z-LL)2 ketone] | does not inhibit | > 75 | 
2 | C[C@H](NC(=O)Cc1cc(F)cc(F)c1)C(=O)NC(C(=O)OC(C)(C)C)c1ccccc1 (stereo partly shown) [DAPT] |  |  | selectively inhibit PSENs, but not SPPs
3 | C[C@H](NC(=O)[C@@H](O)c1cc(F)cc(F)c1)C(=O)N[C@@H]1C(=O)N(C)c2ccccc2-c2ccccc21 [LY-411,575] |  |  | inhibit the activity of SPP

Reference: PMC4457840, “Differential Inhibition of Signal Peptide Peptidase Family Members by Established γ-Secretase Inhibitors” (PLoS ONE, 2015)
